Where two headings read alike, the source gives them in different places.
Legend:
[1] = Thermal analysis and polymorphic stability (DSC, TGA); assay type: physicochemical
Experimental: Polymorphism refers to the ability of a solid material to exist in more than one crystal structure or solid form.
Upon mild heating (about 50° C. to 60° C.), the water content is reduced which would make these salts and the free base form extremely difficult to handle and to process during production and formulation. In contrast the hydrate of the mono mesylate salt is thermally stable and polymorphic stable at much higher temperatures of considerably above 100° C. as judged by TGA.
Moreover, exactly one mol equivalent water is incorporated into the crystal structure wherein the hydrogen atoms of the water molecule form hydrogen bridges with oxygen atoms of two different mesylate molecules. This well-defined position in the crystal lattice (see FIG. 3) is verified by the fact that water is released from the crystal only at high temperature, starting at 160° C.

[2] = Crystallinity by X-ray diffraction, microscopy; assay type: physicochemical; conditions: X-ray diffraction, microscopy
[3] = Exposure in 26-week repeated dose toxicity study (mesylate monohydrate); assay type: in vivo; conditions: rats; for Cmax / AUC(0-t): rat, in vivo; for AUC(0-t): read-out: AUC(0-24); for Exposure ratio 26-wts/13-wts. AUC(0-24) / Exposure ratio 26-wts/13-wts. Cmax: day 1, mesylate monohydrate vs free base; for Exposure ratio 26-wts/13-wts AUC(0-24) / Exposure ratio 26-wts/13-wts Cmax: week 13, mesylate monohydrate vs free base
Experimental: The exposure of rats to N-[5-(aminosulfonyl)-4-methyl-1,3-thiazol-2-yl]-N-methyl-2-[4-(2-pyridinyl)phenyl]acetamide in a repeated dose 13-week toxicity study performed with the free base N-[5-(aminosulfonyl)-4-methyl-1,3-thiazol-2-yl]-N-methyl-2-[4-(2-pyridinyl)phenyl]acetamide (free base) was compared to the exposures observed in a 26-week repeated dose toxicity study performed with the mesylate monohydrate. In both studies, the test items were administered as 0.5% (w/v) tylose suspensions, and the concentrations were adjusted to the equivalents of free base N-[5-(aminosulfonyl)-4-methyl-1,3-thiazol-2-yl]-N-methyl-2-[4-(2-pyridinyl)phenyl]acetamide.

Long term stability = assay type: physicochemical; conditions: in comparison to the free base form
[4] = Pharmacokinetics, single and multiple dose applications in healthy volunteers; assay type: in vivo, humans
Excerpt: The plasma concentrations in humans exceeded those reached in in vivo and in vitro experiments sufficient to effectively treat herpes simplex virus infections in various animal models and to prevent viral replication in cell culture.

herpes simplex viruses = assay: Activity against herpes viruses; conditions: mainly herpes simplex viruses
[5] = Water solubility, solubility screening; conditions: water
[6] = Stability to decomposition: storage at 90° C. for one week
[7] = Stability to dissociation: stirring for one week at room temperature
[8] = female, 10 mg/kg/day, F, 10 mg/kg/day, day 1, 26-week toxicity study
[9] = female, 50 mg/kg/day, F, 50 mg/kg/day, day 1, 26-week toxicity study
[10] = female, 250 mg/kg/day, F, 250 mg/kg/day, day 1, 26-week toxicity study
[11] = male, 10 mg/kg/day, M, 10 mg/kg/day, day 1, 26-week toxicity study
[12] = male, 50 mg/kg/day, M, 50 mg/kg/day, day 1, 26-week toxicity study
[13] = male, 250 mg/kg/day, M, 250 mg/kg/day, day 1, 26-week toxicity study
[14] = mesylate monohydrate vs free base, 50 and 250 mg/kg/day

CS(=O)(=O)O.Cc1nc(N(C)C(=O)Cc2ccc(-c3ccccn3)cc2)sc1S(N)(=O)=O.O [Mesylate monohydrate, N-[5-(aminosulfonyl)-4-methyl-1,3-thiazol-2-yl]-N-methyl-2-[4-(2-pyridinyl)-phenyl]acetamide methanesulfonate monohydrate]
Thermal stability of hydrate [1]: stable
DSC ([1]; Differential Scanning Calorimetry): loss of water before melting
TGA ([1]; Thermogravimetric Analysis): 4.3%
Temperature at which the hydrate is thermally and polymorphic stable ([1]; as judged by TGA): above 100 °C
Temperature at which water is released from the crystal ([1]; starting temperature): ≥ 160 °C
Crystallinity [2]: +
Cmax [3, 8]: 17.2 µg/mL
AUC(0-t) [3, 8]: 175 µg·h/mL
AUC(0-t) ([3]; female, 10 mg/kg/day, F, 10 mg/kg/day, week 13, 26-week toxicity study): 321 µg·h/mL
Cmax ([3]; female, 10 mg/kg/day, F, week 13, 26-week toxicity study): 26 µg/mL
Cmax [3, 9]: 77.8 µg/mL
AUC(0-t) [3, 9]: 913 µg·h/mL
AUC(0-t) ([3]; female, 50 mg/kg/day, F, 50 mg/kg/day, week 13, 26-week toxicity study): 1210 µg·h/mL
Cmax ([3]; female, 50 mg/kg/day, F, week 13, 26-week toxicity study): 106 µg/mL
Cmax [3, 10]: 146 µg/mL
AUC(0-t) [3, 10]: 2470 µg·h/mL
AUC(0-t) ([3]; female, 250 mg/kg/day, F, 250 mg/kg/day, week 13, 26-week toxicity study): 3580 µg·h/mL
Cmax ([3]; female, 250 mg/kg/day, F, week 13, 26-week toxicity study): 217 µg/mL
Cmax [3, 11]: 16.9 µg/mL
AUC(0-t) [3, 11]: 119 µg·h/mL
AUC(0-t) ([3]; male, 10 mg/kg/day, M, 10 mg/kg/day, week 13, 26-week toxicity study): 227 µg·h/mL
Cmax ([3]; male, 10 mg/kg/day, M, week 13, 26-week toxicity study): 21.8 µg/mL
Cmax [3, 12]: 70.3 µg/mL
AUC(0-t) [3, 12]: 634 µg·h/mL
AUC(0-t) ([3]; male, 50 mg/kg/day, M, 50 mg/kg/day, week 13, 26-week toxicity study): 959 µg·h/mL
Cmax ([3]; male, 50 mg/kg/day, M, week 13, 26-week toxicity study): 74.7 µg/mL
Cmax [3, 13]: 134 µg/mL
AUC(0-t) [3, 13]: 1980 µg·h/mL
AUC(0-t) ([3]; male, 250 mg/kg/day, M, 250 mg/kg/day, week 13, 26-week toxicity study): 2780 µg·h/mL
Cmax ([3]; male, 250 mg/kg/day, M, week 13, 26-week toxicity study): 169 µg/mL
Exposure ratio 26-wts/13-wts. AUC(0-24) ([3]; F, 10 mg/kg/day): 1.1
Exposure ratio 26-wts/13-wts. Cmax ([3]; F, 10 mg/kg/day): 1.1
Exposure ratio 26-wts/13-wts AUC(0-24) ([3]; F, 10 mg/kg/day): 1.5
Exposure ratio 26-wts/13-wts Cmax ([3]; F, 10 mg/kg/day): 1.0
Exposure ratio 26-wts/13-wts. AUC(0-24) ([3]; F, 50 mg/kg/day): 2.2
Exposure ratio 26-wts/13-wts. Cmax ([3]; F, 50 mg/kg/day): 2.2
Exposure ratio 26-wts/13-wts AUC(0-24) ([3]; F, 50 mg/kg/day): 2.6
Exposure ratio 26-wts/13-wts Cmax ([3]; F, 50 mg/kg/day): 2.6
Exposure ratio 26-wts/13-wts. AUC(0-24) ([3]; F, 250 mg/kg/day): 2.6
Exposure ratio 26-wts/13-wts. Cmax ([3]; F, 250 mg/kg/day): 2.1
Exposure ratio 26-wts/13-wts AUC(0-24) ([3]; F, 250 mg/kg/day): 3.1
Exposure ratio 26-wts/13-wts Cmax ([3]; F, 250 mg/kg/day): 2.6
Exposure ratio 26-wts/13-wts. AUC(0-24) ([3]; M, 10 mg/kg/day): 1.4
Exposure ratio 26-wts/13-wts. Cmax ([3]; M, 10 mg/kg/day): 1.3
Exposure ratio 26-wts/13-wts AUC(0-24) ([3]; M, 10 mg/kg/day): 1.7
Exposure ratio 26-wts/13-wts Cmax ([3]; M, 10 mg/kg/day): 1.5
Exposure ratio 26-wts/13-wts. AUC(0-24) ([3]; M, 50 mg/kg/day): 2.6
Exposure ratio 26-wts/13-wts. Cmax ([3]; M, 50 mg/kg/day): 2.3
Exposure ratio 26-wts/13-wts AUC(0-24) ([3]; M, 50 mg/kg/day): 2.9
Exposure ratio 26-wts/13-wts Cmax ([3]; M, 50 mg/kg/day): 2.5
Exposure ratio 26-wts/13-wts. AUC(0-24) ([3]; M, 250 mg/kg/day): 3.5
Exposure ratio 26-wts/13-wts. Cmax ([3]; M, 250 mg/kg/day): 2.5
Exposure ratio 26-wts/13-wts AUC(0-24) ([3]; M, 250 mg/kg/day): 4.2
Exposure ratio 26-wts/13-wts Cmax ([3]; M, 250 mg/kg/day): 2.7
Increase in extent of exposure, AUC [3, 14]: ≤ 4 fold
Increase in extent of exposure, Cmax [3, 14]: up to 2.7 fold
Long term stability (Long term stability): superior
Plasma half lives [4]: long lasting half lives
Activity against herpes viruses (herpes simplex viruses): highly active
solubility [5]: 1380 µg/mL
Stability to decomposition [6]: ++
Stability to dissociation [7]: ++

— US9340535B2, “N-[5-(Aminosulfony1)-4-methyl-1,3-thiazol-2-yl]-N-methyl-2-[4-(2-pyridinyl)phenyl]acetamide mesylate monohydrate” (AiCuris GmbH & Co. KG, priority 2011, dated 2016)
